Measurements published in patent US10280163B2 (BeiGene, Ltd., priority 2015, dated 2019).
Counter-ions that a name gives are not always drawn. Like-named read-outs stand apart in the source and are kept apart here.

Assays:
[1] = molecular target: T1, cellular IDO1 in HeLa cells (Homo sapiens, UniProt P14902); test: HeLa cell-based IDO1 Kyn (kynurenine) production assay; details: IFN-γ 100 ng/mL, 48 hours
T1 construct: endogenous in cells; host or cells: HeLa cells (American Type Tissue Culture Collection), induced with human recombinant IFN-γ
Description: HeLa Cell-Based IDO1 Kyn (Kynurenine) Production Assay:
The inhibitory activity of IDO1 inhibitors is determined by using a colorimetric reaction to measure Kyn generated from L-Trp (L-Tryptophon) oxidation by cellular IDO1 in HeLa cells after induction of IDO1 by IFN-γ.
Hela cells were obtained from the American Type Tissue Culture Collection and recovered in 10% FBS-containing phenol red-free DMEM medium supplemented with 0.4 mM L-Trp. Cells were plated onto a 96-well plate (100 μl/well) at 8000 cells per well. Human recombinant IFN-γ (8901SC, CST) was added to cells (final concentration 100 ng/mL) to stimulate endogenous IDO1. Compounds at different concentrations diluted in dimethylsulfoxide (DMSO) were added simultaneously with IFN-γ. Cells were kept at 37° C. in a humidified incubator supplied with 5% CO2. After 48 hours of incubation, 100 μl supernatant from each well was removed to a new plate. The protein in the medium was precipitated with the addition of 8 μl 6N trichloroacetic acid. The plate was incubated at 60° C. for 45 min and then centrifugation at 2500 rpm for 10 min to remove sediments. 80 μl supernatants were carefully removed to a new clean plate and added with an equal volume of 2% 4-(Dimethylamino) benzaldehyde (D2004, sigma) dissolved in glacial acetic acid. The absorbance at 480 nm wavelength derived from Kyn was measured using a FULOstar OMEGA plate reader (BMG LABTECH). The IC50 for each compound was derived from fitting the dose-response data to the four-parameter logistic model by using Graphpad Prism software.

Recombinant IDO1 = molecular target: T2, Recombinant IDO1 (Homo sapiens, UniProt P14902); test: IDO1 enzymatic assay; type: biochemical; details: 50 nM IDO1, 1.3 mM D-tryptophan, read-out: Enzyme IC50 (nM) IDO1
T2 construct: His tag (N); made in house; host or cells: E. coli
Description: Recombinant IDO1 was overexpressed and purified from E. coli cells with an N-terminal His tag. IDO1 enzymatic assay was carried out using a methodology similar to described in the literature (J. Biol. Chem. (1980), 255, 1339-1345.). The reaction mixture contains 50 nM IDO1, 1.3 mM D-tryptophan, 5 mM L-ascorbic acid, 6.25 μM methylene Blue, 0.4 mg/mL catalase and compound (or DMSO) in a buffer containing 50 mM potassium phosphate pH 7.5 and 0.1% BSA. After incubation at 24° C. for 1.5 hours, absorbance of the reaction mixture was continuously read at 321 nm to monitor the formation of N′-formylkynurenine by a FULOstar OMEGA plate reader (BMG LABTECH) for 1 hour. The enzymatic activity was determined by measuring the slope of the linear absorbance increase as a function of time. The IC50s are calculated based on remaining enzyme activity in the presence of increasing concentrations of compounds.

[2] = Table 1, 5-substituted imidazo[1,5-a]pyridines
[3] = Table 2, 8-substituted imidazo[1,5-a]pyridines

T1 sequence (P14902 whole entry): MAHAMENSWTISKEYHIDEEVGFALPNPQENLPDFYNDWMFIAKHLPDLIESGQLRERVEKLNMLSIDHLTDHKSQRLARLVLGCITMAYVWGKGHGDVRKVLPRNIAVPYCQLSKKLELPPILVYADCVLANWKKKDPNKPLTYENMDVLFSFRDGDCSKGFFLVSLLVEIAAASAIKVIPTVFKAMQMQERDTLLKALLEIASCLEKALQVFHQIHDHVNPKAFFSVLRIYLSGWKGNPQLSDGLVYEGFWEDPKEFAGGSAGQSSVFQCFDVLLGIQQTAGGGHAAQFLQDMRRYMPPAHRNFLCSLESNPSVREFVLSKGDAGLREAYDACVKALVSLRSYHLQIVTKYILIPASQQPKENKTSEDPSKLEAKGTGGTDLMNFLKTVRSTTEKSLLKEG
T2 sequence (P14902 whole entry): as above

Compound | EC50 [1, 2] [nM] | IC50 (Recombinant IDO1; [2]) [nM] | EC50 [1, 3] [nM] | IC50 (Recombinant IDO1; [3]) [nM]
1-(7-bromo-8-chloroimidazo[1,5-a]pyridin-5-yl)-2-cyclohexylethan-1-ol [Example A147] | 2790 | 420 |  | 
OC1CCCC(C(O)c2c(C3CC3)ccc3cncn23)C1 (racemic) [Example A164a, 3-((6-Cyclopropylimidazo[1,5-a]pyridin-5-yl)(hydroxy)methyl)cyclohexan-1-ol] | 598 | 71 |  | 
OC1CCCC(C(O)c2c(C3CC3)ccc3cncn23)C1 (racemic) [Example A164c, 3-((6-Cyclopropylimidazo[1,5-a]pyridin-5-yl)(hydroxy)methyl)cyclohexan-1-ol] | 570 | 54 |  | 
OC(c1cccc2cncn12)C1CCCCC1 (single isomer, unassigned) [Example A001b] |  | 11000 |  | 
OC1CCC(C(O)c2c(C3CC3)ccc3cncn23)CC1 (single isomer, unassigned) [Example A142b] | 312 | 31 |  | 
OC1CCC([C@@H](O)c2c(C3CC3)ccc3cncn23)CC1 (single isomer, unassigned) [Example A142c] | > 10000 | 2000 |  | 
OC1CCC([C@@H](O)c2c(C3CC3)ccc3cncn23)CC1 (single isomer, unassigned) [Example A142d] | > 10000 | 9200 |  | 
OC(c1cccc2cncn12)C1CCCC1 (centres unmarked) [Example A002, cyclopentyl(imidazo[1,5-a]pyridin-5-yl)methanol] |  | 150 |  | 
OC(c1cccc2cncn12)C1CC1 (centres unmarked) [Example A003, cyclopropyl(imidazo[1,5-a]pyridin-5-yl)methanol] |  | 3800 |  | 
C#CC(O)c1cccc2cncn12 (centres unmarked) [Example A006, 1-(imidazo[1,5-a]pyridin-5-yl)prop-2-yn-1-ol] |  | 4600 |  | 
OC(c1ccccc1)c1cccc2cncn12 (centres unmarked) [Example A007, imidazo[1,5-a]pyridin-5-yl(phenyl)methanol] |  | 5100 |  | 
OC(c1cccc2cncn12)C1CCOCC1 (centres unmarked) [Example A010, imidazo[1,5-a]pyridin-5-yl(tetrahydro-2H-pyran-4-yl)methanol] |  | 3100 |  | 
CC(C)(C)OC(=O)N1CCC(C(=O)c2cccc3cncn23)CC1 [Example A011, Tert-butyl 4-(imidazo[1,5-a]pyridine-5-carbonyl)piperidine-1-carboxylate] |  | > 100000 |  | 
CC(C)(C)OC(=O)N1CCC(C(O)c2cccc3cncn23)CC1 (centres unmarked) [Example A012, Tert-butyl 4-(hydroxy(imidazo[1,5-a]pyridin-5-yl)methyl)piperidine-1-carboxylate] |  | 41000 |  | 
OC(c1cccc2cncn12)C1CCNCC1 (centres unmarked) [Example A013, Imidazo[1,5-a]pyridin-5-yl(piperidin-4-yl)methanol hydrochloride] |  | > 100000 |  | 
CN1CCC(C(O)c2cccc3cncn23)CC1 (centres unmarked) [Example A014, Imidazo[1,5-a]pyridin-5-yl(1-methylpiperidin-4-yl)methanol] |  | > 100000 |  | 
CC(O)c1cccc2cncn12 (centres unmarked) [Example A017, 1-(imidazo[1,5-a]pyridin-5-yl)ethan-1-ol] |  | 62000 |  | 
OC(c1cccc2cncn12)C1CCC1 (centres unmarked) [Example A018, cyclobutyl(imidazo[1,5-a]pyridin-5-yl)methanol] |  | 1800 |  | 
OC(Cc1ccccc1)c1cccc2cncn12 (centres unmarked) [Example A019, 1-(imidazo[1,5-a]pyridin-5-yl)-2-phenylethan-1-ol] |  | 21000 |  | 
OC(c1ccc(Br)c2cncn12)C1CCCCC1 (centres unmarked) [Example A023, (8-bromoimidazo[1,5-a]pyridin-5-yl)(cyclohexyl)methanol] |  | 6500 |  | 
OC(c1ccc(Cl)c2cncn12)C1CCCCC1 (centres unmarked) [Example A024, (8-chloroimidazo[1,5-a]pyridin-5-yl)(cyclohexyl)methanol] |  | 3300 |  | 

Results, then the compound that gave them:

EC50 [1, 2] [nM] | IC50 (Recombinant IDO1; [2]) [nM] | EC50 [1, 3] [nM] | IC50 (Recombinant IDO1; [3]) [nM] | Compound
 |  | 149 | 100 | OC(c1c(C2CC2)ccn2cncc12)C1CCC(c2ccccc2)CC1 (mixture of isomers) [Example B143, (7-cyclopropylimidazo[1,5-a]pyridin-8-yl)(4-phenylcyclohexyl)methanol]
 |  | 676 | 340 | OC(c1c([C@H]2C[C@H]2F)ccn2cncc12)C1CCCCC1 (mixture of isomers) [Example B126b, cyclohexyl(7-(cis-2-fluorocyclopropyl)imidazo [1,5-a]pyridin-8-yl)methanol]
 |  | 1130 | 93 | OC(CC1CCCCC1)c1c([C@H]2C[C@H]2F)ccn2cncc12 (mixture of isomers) [Example B127b, 2-Cyclohexyl-1-(7-(cis-2-fluorocyclopropyl)imidazo[1,5-a]pyridin-8-yl)ethan-1-ol]
 |  | 184 | 100 | OC(c1c([C@H]2C[C@@H]2F)ccn2cncc12)C1CCCCC1 (mixture of isomers) [Example B128a, Cyclohexyl(7-((trans)-2-fluorocyclopropyl)imidazo[1,5-a]pyridin-8-yl)methanol]
 |  | 942 | 340 | OC(c1c([C@H]2C[C@H]2F)ccn2cncc12)C1CCCCC1 (relative stereo) [Example B126a, cyclohexyl(7-(cis-2-fluorocyclopropyl)imidazo [1,5-a]pyridin-8-yl)methanol]
 |  | 595 | 88 | OC(CC1CCCCC1)c1c([C@H]2C[C@H]2F)ccn2cncc12 (relative stereo) [Example B127a, 2-Cyclohexyl-1-(7-(cis-2-fluorocyclopropyl)imidazo[1,5-a]pyridin-8-yl)ethan-1-ol]
 |  | 129 | 23 | CC(C)c1ccn2cncc2c1C(O)C1CCCCC1 (single isomer, unassigned) [Example B106a]
 |  | > 10000 | 1800 | CC(C)c1ccn2cncc2c1C(O)C1CCCCC1 (single isomer, unassigned) [Example B106b]
 |  | 215 | 18 | OC(CC1CCCCC1)c1c(C2CC2)ccn2cncc12 (single isomer, unassigned) [Example B110a]
 |  | > 10000 | 4.9 | OC(CC1CCCCC1)c1c(C2CC2)ccn2cncc12 (single isomer, unassigned) [Example B110b]
 |  | 1360 | 280 | OC(c1c(C2CC2)ccn2cncc12)[C@H]1CC[C@H](O)CC1 (single isomer, unassigned) [Example B119a, (trans)-4-((7-Cyclopropylimidazo[1,5-a]pyridin-8-yl)(hydroxy)methyl)cyclohexan-1-ol]
 |  | > 10000 | 5500 | OC(c1c(C2CC2)ccn2cncc12)[C@H]1CC[C@H](O)CC1 (single isomer, unassigned) [Example B119b, (trans)-4-((7-Cyclopropylimidazo[1,5-a]pyridin-8-yl)(hydroxy)methyl)cyclohexan-1-ol]
 |  | > 10000 | 7700 | OC(c1c(C2CC2)ccn2cncc12)[C@H]1CC[C@@H](O)CC1 (single isomer, unassigned) [Example B119c]
 |  | 2990 | 110 | OC(c1c(C2CC2)ccn2cncc12)[C@H]1CC[C@@H](O)CC1 (single isomer, unassigned) [Example B119d]
 |  | 719 | 210 | CC(C)c1ccn2cncc2c1C(O)[C@H]1CC[C@H](O)CC1 (single isomer, unassigned) [Example B121a, (trans)-4-(Hydroxy(7-isopropylimidazo[1,5-a]pyridin-8-yl)methyl) cyclohexan-1-ol]
 |  | > 10000 | 21000 | CC(C)c1ccn2cncc2c1C(O)[C@H]1CC[C@H](O)CC1 (single isomer, unassigned) [Example B121b, (trans)-4-(Hydroxy(7-isopropylimidazo[1,5-a]pyridin-8-yl)methyl) cyclohexan-1-ol]
 |  | 1670 | 110 | CC(C)c1ccn2cncc2c1[C@@H](O)[C@H]1CC[C@@H](O)CC1 (single isomer, unassigned) [Example B121c]
 |  |  | > 100000 | O=C(c1ccccc1)c1cccn2cncc12 [Example B003, Imidazo[1,5-a]pyridin-8-yl(phenyl)methanone]
